# According to ChEMBL document CHEMBL3751834, “Insight to the binding mode of triazole RGD-peptidomimetics to integrin-rich cancer cells by NMR and molecular modeling” (Bioorg Med Chem, 2016):
# Calls of active or inactive are those of the source. The calls are words filed in the database; no cut-off is given here.
# Key:
# [1] = molecular target: T1, Integrin alpha-V/beta-3 (Homo sapiens, UniProt P05106+P06756); assay: Binding affinity to integrin alphavbeta3 receptor in human ECV304 cells by STD-NMR analysis; type: cell-based; conditions: ECV-304
# [2] = molecular target: T1, Integrin alpha-V/beta-3; assay: Displacement of 125-I-echistatin from human placental integrin alphavbeta3 receptor incubated for 3 hrs by microplate scintillation counting analysis
SMILES,Activity [1],IC50 [2] [nM],IC50H [2] [nM],IC50L [2] [nM]
O=C(O)C[C@H](NC(=O)Cn1cc(CCCNc2ccccn2)nn1)c1ccc(O)cc1,Active,221,–,–
O=C(O)C[C@H](NC(=O)Cn1cc(CCCNc2ccccn2)nn1)c1ccccc1,Active,–,13,900
N=C(N)NCCCc1cn(CC(=O)N[C@@H](CC(=O)O)c2ccccc2)nn1,Active,–,–,–
N=C(N)NCCCc1cn(CC(=O)N[C@@H](CC(=O)O)c2ccc(O)cc2)nn1,Active,–,–,–

# More lines, now with the values ahead:
Activity [1],IC50 [2] [nM],IC50H [2] [nM],IC50L [2] [nM],SMILES
Active,–,12,1120,O=C(O)C[C@H](NC(=O)Cn1cc(CCCNc2nc3ccccc3[nH]2)nn1)c1ccccc1
Active,–,–,–,O=C(O)C[C@H](NC(=O)Cn1cc(CCCNc2nc3ccccc3[nH]2)nn1)c1ccc(O)cc1
